Results from article PMC3808535, “Pannexin1 Channel Proteins in the Zebrafish Retina Have Shared and Unique Properties” (PLoS ONE, 2013).
Changes are numbered by the printed parent chain.

Key:
Assay in all cases: ethidium dye uptake in transfected N2a cells
Assay type in all cases: cell-based
drPanx1b [1] = molecular target: T1, drPanx1b (Danio rerio, UniProt F1QSR7, R75A/H238Y); details: 500 uM ATP, 20 uM EtBr, 5 min, pH 7.4; endogenous Panx1 and P2X7-R in N2a host
T1 construct: gene panx1b; full length aa 1-422, C-terminal EYFP fusion (pEYFP-N1), transient in mouse N2a cells
T1 sequence (F1QSR7 1-422 R75A/H238Y): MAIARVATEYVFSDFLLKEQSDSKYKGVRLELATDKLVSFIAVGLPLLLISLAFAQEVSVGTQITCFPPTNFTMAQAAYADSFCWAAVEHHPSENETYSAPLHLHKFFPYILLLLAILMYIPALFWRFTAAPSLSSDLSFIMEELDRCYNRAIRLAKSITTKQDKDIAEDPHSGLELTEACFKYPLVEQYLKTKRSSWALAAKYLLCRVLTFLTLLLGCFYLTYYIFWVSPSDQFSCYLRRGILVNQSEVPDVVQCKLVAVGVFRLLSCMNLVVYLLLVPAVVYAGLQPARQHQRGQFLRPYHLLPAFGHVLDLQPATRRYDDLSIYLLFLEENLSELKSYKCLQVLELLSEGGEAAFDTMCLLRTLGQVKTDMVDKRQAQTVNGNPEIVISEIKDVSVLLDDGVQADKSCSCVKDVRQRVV

drPanx1a [2] = molecular target: T2, drPanx1a (Danio rerio, UniProt A0A8M1PG01, C76E); details: 3 mM ATP, 20 uM EtBr, 5 min, pH 7.4; endogenous Panx1 and P2X7-R in N2a host
T2 construct: gene panx1a; full length aa 1-417 (natural Cys at position 76), C-terminal EYFP fusion (pEYFP-N1), transient in mouse N2a cells
T2 sequence (A0A8M1PG01 1-417 C76E): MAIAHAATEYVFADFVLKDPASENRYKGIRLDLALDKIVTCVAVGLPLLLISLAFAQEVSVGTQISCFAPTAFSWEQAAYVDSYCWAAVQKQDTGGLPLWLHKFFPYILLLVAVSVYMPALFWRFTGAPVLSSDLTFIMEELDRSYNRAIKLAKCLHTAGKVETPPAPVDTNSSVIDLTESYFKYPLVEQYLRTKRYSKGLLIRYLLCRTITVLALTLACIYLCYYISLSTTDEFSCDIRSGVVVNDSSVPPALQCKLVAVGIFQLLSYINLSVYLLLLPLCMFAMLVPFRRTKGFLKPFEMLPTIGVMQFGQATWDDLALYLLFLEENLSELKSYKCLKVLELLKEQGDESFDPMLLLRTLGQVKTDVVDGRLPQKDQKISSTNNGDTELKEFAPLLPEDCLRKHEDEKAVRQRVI

drPanx1a [3] = molecular target: T3, drPanx1a (Danio rerio, UniProt A0A8M1PG01)
T3 construct: gene panx1a; full length aa 1-417 (natural Cys at position 76), C-terminal EYFP fusion (pEYFP-N1), transient in mouse N2a cells
T3 sequence (A0A8M1PG01 1-417): T2 sequence (A0A8M1PG01 1-417 C76E) with E76C

drPanx1b [4] = molecular target: T4, drPanx1b (Danio rerio, UniProt F1QSR7, H238Y)
T4 construct: gene panx1b; full length aa 1-422, C-terminal EYFP fusion (pEYFP-N1), transient in mouse N2a cells
T4 sequence (F1QSR7 1-422 H238Y): T1 sequence (F1QSR7 1-422 R75A/H238Y) with A75R

mPanx1 [5] = molecular target: T5, mPanx1 (Mus musculus, UniProt Q9JIP4); details: 20 uM EtBr, 5 min, pH 7.4; channel permeant dye
T5 construct: gene Panx1; full length aa 1-426, C-terminal EYFP fusion (pEYFP-N1), transient in mouse N2a cells

drPanx1a [6] = molecular target: T6, drPanx1a (Danio rerio, UniProt A0A8M1PG01, C76A); details: 100 uM BBG, 20 uM EtBr, 5 min, pH 7.4; endogenous Panx1 and P2X7-R in N2a host
T6 construct: gene panx1a; full length aa 1-417 (natural Cys at position 76), C-terminal EYFP fusion (pEYFP-N1), transient in mouse N2a cells
T6 sequence (A0A8M1PG01 1-417 C76A): T2 sequence (A0A8M1PG01 1-417 C76E) with E76A

drPanx1b [7] = molecular target: T7, drPanx1b (Danio rerio, UniProt F1QSR7, R75C/H238Y); details: 100 uM BBG, 20 uM EtBr, 5 min, pH 7.4; endogenous Panx1 and P2X7-R in N2a host
T7 construct: gene panx1b; full length aa 1-422, C-terminal EYFP fusion (pEYFP-N1), transient in mouse N2a cells
T7 sequence (F1QSR7 1-422 R75C/H238Y): T1 sequence (F1QSR7 1-422 R75A/H238Y) with A75C

drPanx1b [8] = molecular target: T8, drPanx1b (Danio rerio, UniProt F1QSR7, R75K/H238Y); details: 100 uM BBG, 20 uM EtBr, 5 min, pH 7.4; endogenous Panx1 and P2X7-R in N2a host
T8 construct: gene panx1b; full length aa 1-422, C-terminal EYFP fusion (pEYFP-N1), transient in mouse N2a cells
T8 sequence (F1QSR7 1-422 R75K/H238Y): T1 sequence (F1QSR7 1-422 R75A/H238Y) with A75K

drPanx1a [9] = molecular target: T9, drPanx1a (Danio rerio, UniProt A0A8M1PG01, C76R); details: 100 uM BBG, 20 uM EtBr, 5 min, pH 7.4; endogenous Panx1 and P2X7-R in N2a host
T9 construct: gene panx1a; full length aa 1-417 (natural Cys at position 76), C-terminal EYFP fusion (pEYFP-N1), transient in mouse N2a cells
T9 sequence (A0A8M1PG01 1-417 C76R): T2 sequence (A0A8M1PG01 1-417 C76E) with E76R

drPanx1a [10] = molecular target: T10, drPanx1a (Danio rerio, UniProt A0A8M1PG01, C76K); details: 100 uM BBG, 20 uM EtBr, 5 min, pH 7.4; endogenous Panx1 and P2X7-R in N2a host
T10 construct: gene panx1a; full length aa 1-417 (natural Cys at position 76), C-terminal EYFP fusion (pEYFP-N1), transient in mouse N2a cells
T10 sequence (A0A8M1PG01 1-417 C76K): T2 sequence (A0A8M1PG01 1-417 C76E) with E76K

drPanx1b [11] = molecular target: T11, drPanx1b (Danio rerio, UniProt F1QSR7, R75E/H238Y); details: 100 uM BBG, 20 uM EtBr, 5 min, pH 7.4; endogenous Panx1 and P2X7-R in N2a host
T11 construct: gene panx1b; full length aa 1-422, C-terminal EYFP fusion (pEYFP-N1), transient in mouse N2a cells
T11 sequence (F1QSR7 1-422 R75E/H238Y): T1 sequence (F1QSR7 1-422 R75A/H238Y) with A75E

mPanx1 [12] = molecular target: T5, mPanx1; details: read-out: % inhibition at 100 uM
drPanx1a [13] = molecular target: T2, drPanx1a; details: 100 uM BBG, 20 uM EtBr, 5 min, pH 7.4; endogenous Panx1 and P2X7-R in N2a host
drPanx1b [14] = molecular target: T1, drPanx1b; details: 100 uM BBG, 20 uM EtBr, 5 min, pH 7.4; endogenous Panx1 and P2X7-R in N2a host

T5 sequence (Q9JIP4 whole entry, the tested form may be a part): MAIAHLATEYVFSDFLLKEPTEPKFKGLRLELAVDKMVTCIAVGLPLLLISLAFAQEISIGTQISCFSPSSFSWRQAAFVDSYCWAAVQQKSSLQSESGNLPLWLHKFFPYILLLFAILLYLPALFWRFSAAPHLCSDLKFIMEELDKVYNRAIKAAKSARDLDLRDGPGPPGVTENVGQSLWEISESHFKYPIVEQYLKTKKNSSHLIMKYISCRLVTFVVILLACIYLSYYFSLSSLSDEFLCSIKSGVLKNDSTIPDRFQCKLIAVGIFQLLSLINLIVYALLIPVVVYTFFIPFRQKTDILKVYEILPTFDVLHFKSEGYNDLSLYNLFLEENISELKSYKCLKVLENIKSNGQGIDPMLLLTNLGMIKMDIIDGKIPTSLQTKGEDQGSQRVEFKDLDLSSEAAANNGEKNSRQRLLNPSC

## Nc1ncnc2c1ncn2[C@@H]1O[C@H](COP(=O)(O)OP(=O)(O)OP(=O)(O)O)[C@@H](O)[C@H]1O [ATP]
drPanx1b [1]
  % inhibition at 500 uM: drPanx1b WT ≥ R75K ≥ R75C > R75E ≥ R75A
drPanx1a [2]
  % inhibition at 3 mM: ATP: drPanx1a-C76E > C76A ≥ WT
drPanx1a [3]; read-out: % inhibition at 3 mM
  inhibition at 3000 µM: 20.2 ± 2.2%
drPanx1b [4]
  inhibition at 500 µM: 27.3 ± 1.9%

## CC[n+]1c(-c2ccccc2)c2cc(N)ccc2c2ccc(N)cc21 [Ethidium bromide]
mPanx1 [5]
  ethidium dye uptake in transfected N2a cells: EtBr uptake was significantly increased in mPanx1

## CCOc1ccc(Nc2ccc(C(=C3C=CC(=[N+](CC)Cc4cccc(S(=O)(=O)[O-])c4)C=C3C)c3ccc(N(CC)Cc4cccc(S(=O)(=O)O)c4)cc3C)cc2)cc1 [brilliant blue G]
drPanx1a [6]
  % inhibition at 100 uM: BBG: drPanx1a-C76R > C76K > WT ≥ C76A > C76E
drPanx1b [7]
  % inhibition at 100 uM: drPanx1b WT > R75C > R75K ≥ R75A ≥ R75E
drPanx1b [8]
  % inhibition at 100 uM: drPanx1b WT > R75C > R75K ≥ R75A ≥ R75E
drPanx1a [9]
  % inhibition at 100 uM: BBG: drPanx1a-C76R > C76K > WT
drPanx1a [10]
  % inhibition at 100 uM: BBG: drPanx1a-C76R > C76K > WT
drPanx1b [11]
  % inhibition at 100 uM: drPanx1b WT > R75C > R75K ≥ R75A ≥ R75E
drPanx1a [3]
  inhibition at 100 µM: 33.4 ± 1.7%
mPanx1 [12]
  inhibition at 100 µM: 40.6 ± 1.4%
drPanx1b [4]
  inhibition at 100 µM: 64.1 ± 1%
drPanx1a [13]
  % inhibition at 100 uM: BBG: drPanx1a-C76R > C76K > WT ≥ C76A > C76E
drPanx1b [14]
  % inhibition at 100 uM: drPanx1b WT > R75C > R75K ≥ R75A ≥ R75E
